According to ChEMBL document CHEMBL1275577, “Study of the in vitro activities of rifaximin and comparator agents against 536 anaerobic intestinal bacteria from the perspective of potential utility in pathology involving bowel flora” (Antimicrob Agents Chemother, 2009):

Legend:
[1] = tested on: Lacticaseibacillus rhamnosus; assay: Antimicrobial activity against Lactobacillus rhamnosus by Wadsworth agar dilution method; type: functional
Clostridium subterminale = assay: Antimicrobial activity against Clostridium subterminale by Wadsworth agar dilution method; type: functional
Bacteroides ovatus = assay: Antimicrobial activity against Bacteroides ovatus by Wadsworth agar dilution method; type: functional
Clostridium hathewayi = assay: Antimicrobial activity against Clostridium hathewayi by Wadsworth agar dilution method; type: functional; details: Hungatella hathewayi
[2] = tested on: Desulfovibrio fairfieldensis; assay: Antimicrobial activity against Desulfovibrio fairfieldensis by Wadsworth agar dilution method; type: functional
Eubacterium biforme = assay: Antimicrobial activity against Eubacterium biforme by Wadsworth agar dilution method; type: functional; details: Holdemanella biformis
Desulfovibrio vulgaris = assay: Antimicrobial activity against Desulfovibrio vulgaris by Wadsworth agar dilution method; type: functional; details: Nitratidesulfovibrio vulgaris
Peptoniphilus harei = assay: Antimicrobial activity against Peptoniphilus harei by Wadsworth agar dilution method; type: functional
Clostridium butyricum = assay: Antimicrobial activity against Clostridium butyricum by Wadsworth agar dilution method; type: functional
Tissierella praeacuta = assay: Antimicrobial activity against Clostridium hastiforme by Wadsworth agar dilution method; type: functional
Blautia luti = assay: Antimicrobial activity against Ruminococcus luti by Wadsworth agar dilution method; type: functional
Bacteroides caccae = assay: Antimicrobial activity against Bacteroides caccae by Wadsworth agar dilution method; type: functional
Bacteroides uniformis = assay: Antimicrobial activity against Bacteroides uniformis by Wadsworth agar dilution method; type: functional
Clostridium tertium = assay: Antimicrobial activity against Clostridium tertium by Wadsworth agar dilution method; type: functional
[3] = tested on: Limosilactobacillus reuteri; assay: Antimicrobial activity against Lactobacillus reuteri by Wadsworth agar dilution method; type: functional
Lactobacillus jensenii = assay: Antimicrobial activity against Lactobacillus jensenii by Wadsworth agar dilution method; type: functional
Clostridioides difficile = assay: Antimicrobial activity against Clostridium difficile by Wadsworth agar dilution method; type: functional
[4] = tested on: Peptoniphilus asaccharolyticus; assay: Antimicrobial activity against Peptoniphilus asaccharolyticus by Wadsworth agar dilution method; type: functional
Ruminococcus lactaris = assay: Antimicrobial activity against Ruminococcus lactaris by Wadsworth agar dilution method; type: functional
[5] = tested on: Bacteroides thetaiotaomicron; assay: Antimicrobial activity against Bacteroides thetaiotaomicron by Wadsworth agar dilution method; type: functional
Hoylesella loescheii = assay: Antimicrobial activity against Prevotella loescheii by Wadsworth agar dilution method; type: functional
Eggerthella lenta = assay: Antimicrobial activity against Eggerthella lenta by Wadsworth agar dilution method; type: functional
[6] = tested on: Enterocloster clostridioformis; assay: Antimicrobial activity against Clostridium clostridioforme by Wadsworth agar dilution method; type: functional
Bifidobacterium dentium = assay: Antimicrobial activity against Bifidobacterium dentium by Wadsworth agar dilution method; type: functional
Flavonifractor plautii = assay: Antimicrobial activity against Clostridium orbiscindens by Wadsworth agar dilution method; type: functional
Clostridium leptum = assay: Antimicrobial activity against Clostridium leptum by Wadsworth agar dilution method; type: functional
Collinsella aerofaciens = assay: Antimicrobial activity against Colinsella aerofaciens by Wadsworth agar dilution method; type: functional
Fusobacterium nucleatum = assay: Antimicrobial activity against Fusobacterium nucleatum by Wadsworth agar dilution method; type: functional
[7] = tested on: Lactiplantibacillus plantarum; assay: Antimicrobial activity against Lactobacillus plantarum by Wadsworth agar dilution method; type: functional
Clostridium disporicum = assay: Antimicrobial activity against Clostridium disporicum by Wadsworth agar dilution method; type: functional
Clostridium scindens = assay: Antimicrobial activity against Clostridium scindens by Wadsworth agar dilution method; type: functional
Clostridium septicum = assay: Antimicrobial activity against Clostridium septicum by Wadsworth agar dilution method; type: functional
[8] = tested on: Clostridium lactatifermentans; assay: Antimicrobial activity against Clostridium lactatifermentans by Wadsworth agar dilution method; type: functional; details: Anaerotignum lactatifermentans
Fusobacterium varium = assay: Antimicrobial activity against Fusobacterium varium by Wadsworth agar dilution method; type: functional
Eubacterium rectale = assay: Antimicrobial activity against Eubacterium rectale by Wadsworth agar dilution method; type: functional; details: Agathobacter rectalis
Clostridium sp. = assay: Antimicrobial activity against Clostridium sp. by Wadsworth agar dilution method; type: functional
Parvimonas micra = assay: Antimicrobial activity against Peptostreptococcus micros by Wadsworth agar dilution method; type: functional
[9] = tested on: Propionibacterium propionicum; assay: Antimicrobial activity against Propionibacterium propionicum by Wadsworth agar dilution method; type: functional; details: Arachnia propionica
Cutibacterium acnes = assay: Antimicrobial activity against Propionibacterium acnes by Wadsworth agar dilution method; type: functional
[10] = Antimicrobial activity against Bifidobacterium infantis by Wadsworth agar dilution method; type: functional, Bifidobacterium longum subsp. infantis; details: Bifidobacterium longum
Parabacteroides merdae = assay: Antimicrobial activity against Parabacteroides merdae by Wadsworth agar dilution method; type: functional
Prevotella intermedia = assay: Antimicrobial activity against Prevotella intermedia by Wadsworth agar dilution method; type: functional
Holdemania filiformis = assay: Antimicrobial activity against Holdemania filiformis by Wadsworth agar dilution method; type: functional
Schaalia meyeri = assay: Antimicrobial activity against Actinomyces meyeri by Wadsworth agar dilution method; type: functional
[11] = tested on: Bifidobacterium adolescentis; assay: Antimicrobial activity against Bifidobacterium adolescentis by Wadsworth agar dilution method; type: functional
[12] = tested on: Coprobacillus cateniformis; assay: Antimicrobial activity against Coprobacillus cateniformis by Wadsworth agar dilution method; type: functional
Clostridium perfringens = assay: Antimicrobial activity against Clostridium perfringens by Wadsworth agar dilution method; type: functional
Clostridium cadaveris = assay: Antimicrobial activity against Clostridium cadaveris by Wadsworth agar dilution method; type: functional

CO[C@H]1/C=C/O[C@@]2(C)Oc3c(C)c(O)c4c(O)c(c5c(nc6cc(C)ccn65)c4c3C2=O)NC(=O)/C(C)=C\C=C\[C@H](C)[C@H](O)[C@@H](C)[C@@H](O)[C@@H](C)[C@H](OC(C)=O)[C@@H]1C [RIFAXIMIN]
4 µg/mL: MIC90 (Peptoniphilus harei) | MIC90 (Blautia luti) | MIC90 [4] | MIC90 (Ruminococcus lactaris) | MIC90 (Parvimonas micra)
1 µg/mL: MIC50 (Bacteroides ovatus) | MIC90 (Bacteroides ovatus) | MIC50 [5] | MIC90 (Parabacteroides merdae)
2 µg/mL: MIC50 (Fusobacterium nucleatum)
0.5 µg/mL: MIC50 [1] | MIC50 (Eubacterium biforme) | MIC90 (Bacteroides uniformis) | MIC50 [3] | MIC50 (Lactobacillus jensenii) | MIC90 (Hoylesella loescheii) | MIC50 (Eggerthella lenta) | MIC50 (Bifidobacterium dentium) | MIC50 (Collinsella aerofaciens) | MIC50 [7] | MIC50 (Eubacterium rectale) | MIC50 [9] | MIC50 (Cutibacterium acnes) | MIC50 [10] | MIC90 (Prevotella intermedia) | MIC50 (Holdemania filiformis) | MIC50 (Schaalia meyeri) | MIC50 [11] | MIC50 [12]
> 1020 µg/mL: MIC90 [1] | MIC90 (Clostridium subterminale) | MIC90 (Eubacterium biforme) | MIC90 (Clostridium butyricum) | MIC90 (Tissierella praeacuta) | MIC90 (Clostridium tertium) | MIC90 [3] | MIC90 (Lactobacillus jensenii) | MIC90 [5] | MIC90 (Eggerthella lenta) | MIC90 (Bifidobacterium dentium) | MIC50 (Flavonifractor plautii) | MIC90 (Flavonifractor plautii) | MIC90 (Clostridium leptum) | MIC90 (Collinsella aerofaciens) | MIC90 [7] | MIC90 (Clostridium disporicum) | MIC90 (Clostridium scindens) | MIC90 (Clostridium septicum) | MIC90 [8] | MIC90 (Fusobacterium varium) | MIC90 (Eubacterium rectale) | MIC90 (Clostridium sp.) | MIC90 [9] | MIC90 (Cutibacterium acnes) | MIC90 [10] | MIC90 (Holdemania filiformis) | MIC90 (Schaalia meyeri) | MIC90 [11] | MIC90 [12] | MIC90 (Clostridium cadaveris)
> 0.5 µg/mL: MIC90 (Bacteroides caccae)
332 µg/mL: MIC90 [2] | MIC90 (Desulfovibrio vulgaris)
8 µg/mL: MIC90 (Fusobacterium nucleatum)
16 µg/mL: MIC50 [2] | MIC50 (Desulfovibrio vulgaris) | MIC50 (Fusobacterium varium)
0.25 µg/mL: MIC (Clostridium subterminale) | MIC50 (Clostridium subterminale) | MIC50 (Clostridium hathewayi) | MIC90 (Clostridium hathewayi) | MIC (Peptoniphilus harei) | MIC50 (Peptoniphilus harei) | MIC (Clostridium butyricum) | MIC50 (Clostridium butyricum) | MIC (Tissierella praeacuta) | MIC50 (Tissierella praeacuta) | MIC (Blautia luti) | MIC50 (Blautia luti) | MIC (Bacteroides caccae) | MIC50 (Bacteroides caccae) | MIC (Bacteroides uniformis) | MIC50 (Bacteroides uniformis) | MIC (Clostridium tertium) | MIC50 (Clostridium tertium) | MIC50 (Clostridioides difficile) | MIC90 (Clostridioides difficile) | MIC [4] | MIC50 [4] | MIC (Ruminococcus lactaris) | MIC50 (Ruminococcus lactaris) | MIC (Hoylesella loescheii) | MIC50 (Hoylesella loescheii) | MIC50 [6] | MIC90 [6] | MIC (Clostridium leptum) | MIC50 (Clostridium leptum) | MIC (Clostridium disporicum) | MIC50 (Clostridium disporicum) | MIC (Clostridium scindens) | MIC50 (Clostridium scindens) | MIC (Clostridium septicum) | MIC50 (Clostridium septicum) | MIC [8] | MIC50 [8] | MIC (Clostridium sp.) | MIC50 (Clostridium sp.) | MIC (Parvimonas micra) | MIC50 (Parvimonas micra) | MIC (Parabacteroides merdae) | MIC50 (Parabacteroides merdae) | MIC (Prevotella intermedia) | MIC50 (Prevotella intermedia) | MIC50 (Clostridium perfringens) | MIC90 (Clostridium perfringens) | MIC (Clostridium cadaveris) | MIC50 (Clostridium cadaveris)
